Residues, ends and D or L forms follow the SMILES beside them. *: point of attachment. Cbz = O=C(OCc1ccccc1)*; CH2F = FC*
Tests used:
[1] = system: COS-7 and CHO cells; experiment: Immunofluorescence microscopy with anti-HA antibody of transfected cells; assay type: cell-based; conditions: 24 hours
Text: Thus, the enhanced cytotoxicity of HA-BAXΔART compared to HA-BAX in vivo correlates with inhibition of BAX membrane integration by the ART domain in vitro.

[2] = system: intact mitochondria isolated from rat heart; experiment: Mitochondrial protein targeting in vitro (35S-labelled reticulocyte lysate translation products, alkali-resistant insertion); assay type: biochemical; parameters: BAX targeting supported by apoptotic high speed cytosol / mitochondrial membrane insertion of BAX with additional cytochrome c: dose or concentration left out as unconfirmed
Text: To examine targeting of BAX into mitochondria in vitro, we employed the ^35S-labelled transcription-translation product of BAX cDNA in rabbit reticulocyte lysate combined with intact mitochondria isolated from rat heart. This is a well documented system that faithfully reflects in vivo import of diverse mitochondrial proteins, including the insertion of integral proteins into the mitochondrial outer membrane (Li and Shore, Science 256:1815-1817, 1992; McBride et al., J. Cell Biol. 119:1451-1457, 1992).
The results of our investigation as to whether or not apoptotic cell extract supports BAX targeting to mitochondria in vitro are presented in FIGS. 3A-3D. Briefly, in the experiments were conducted as follows. In FIG. 3A, ^35S-labeled transcription-translation products of BAX cDNA in rabbit reticulocyte lysate (BAX and BAXΔART) were incubated with purified, intact mitochondria from rat heart in a standard protein import reaction supplemented with 1 mM dATP (FIG. 3A, lanes 3, 4, 6, and 7) or 1 mM dATP and […] apoptotic cytosol protein (Extract) (FIG. 3A, lanes 4 and 7), in a volume of […]. At the end of the reaction, mitochondria were recovered by centrifugation and the pellets analyzed by SDS PAGE and fluorography either directly or after extraction with […], pH 11.5 (Alkali) (FIG. 3A, lanes 5-7).
The heart of one male Sprague Dawley rat (approximately 250 grams) was placed in approximately 100 ml HIM buffer (0.2% w/v BSA, 200 mM mannitol, 70 mM sucrose, 10 mM HEPES-KOH, 1 mM EGTA, pH 7.5) on ice, squeezed several times to force out blood, and transferred to 7.5 ml HIM in a 15-ml corex tube. All subsequent steps were conducted at 4° C. The heart was homogenized with a Polytron homogenizer (Brinkmann Instruments Inc., Westbury, N.Y.) operating for 1 second at setting 6.5. Nuclei and unbroken cells were pelleted at 1800 rpm for 10 min. in a Sorvall SS34 rotor. The supernatant was centrifuged for 10 min. at 7000 rpm. The resulting pellet was resuspended in HIM (minus BSA), centrifuged at 1800 rpm and the mitochondria were collected at 7000 rpm. The mitochondrial pellet was resuspended in cMRM (250 mM sucrose, 10 mM HEPES-KOH, 1 mM ATP, 5 mM Na Succinate, 0.08 mM ADP, 2 mM K2HPO4, pH 7.5) at a concentration of 1 mg of mitochondrial protein per ml, and adjusted to 1 mM dithiothreitol just before use.
cDNAs were transcribed and translated in the presence of ^35S-methionine in a cell-free rabbit reticulocyte lysate system (Promega Corp., Madison, Wis.) according to the manufacturer's directions. For a standard mitochondrial protein import reaction, 5 μl of translation reaction was incubated with 20 μl of Buffer A (20 mM HEPES-KOH, 10 mM KCl, 2.5 mM MgCl2, 1 mM EDTA, 1 mM EGTA, 1 mM dithiothreitol, pH 7.5) and 25 μl mitochondria or mitoplasts in cMRM (1 mg protein / ml) at 30° C or 37° C. for 30 min. to 2 hours. The import reaction was then layered on a 500 μl cushion of 1×MRM (250 mM sucrose, 10 mM HEPES-KOH, pH 7.5) and centrifuged for 4 min. at top speed in a microfuge at 4° C. For alkali extraction, the mitochondrial pellet was resuspended (0.25 mg protein / ml) in freshly prepared 0.1 M Na2CO3, pH 11.5, and incubated for 30 min. on ice. The membranes were then pelleted in an airfuge (commercially available from Beckman Instruments Canada Inc., Montreal, PQ, Canada) operating for 10 min. at 30 psi. The pellet was analyzed by SDS-PAGE and fluorography. […]

[3] = system: FL5.12 cells; experiment: BAX integration into mitochondrial membrane of FL5.12 cells after IL-3 withdrawal (alkali extraction, anti-BAX Western blot); assay type: cell-based; conditions: FL5.12 cells deprived of IL-3 for 12 hours, 50 mM zVAD-fmk
Protocol: In the absence of a death signal during apoptosis of a cell, BAX is found free in the cytosol of the cell or is peripherally associated with endocellular membrane surfaces. We performed a Western blotting analysis of mitochondrial membranes from FL5.12 cells, immunoblotting anti-BAX antibodies (antibodies commercially available from, for example, Santa Cruz Biotech., Santa Cruz, Calif.; FIG. 1). Briefly, the mitochondrial fraction was prepared from FL5.12 cells maintained in IL-3 (FIG. 1, lanes 1, 2, 5, and 6) or deprived of IL-3 for 12 hours (FIG. 1, lanes 3, 4, 7, and 8), in the absence (FIG. 1, lanes 1, 3, 5, and 7) or presence (FIG. 1, lanes 2, 4, 6, and 8) of […] zVAD-fmk for 12 hours by centrifuging at 200,000×g for 45 min. to yield supernatant and pellet fractions (the pellet fraction contains the mitochondrial membranes). The mitochondrial fractions were analyzed either directly (FIG. 1, lanes 1-4) or following extraction with 0.1 M Na2CO3, pH 11.5 (FIG. 1, lanes 5-8).
Cells were collected, washed twice with phosphate buffered saline, suspended in 2 ml HIM buffer (0.2% w/v BSA, 200 mM mannitol, 70 mM sucrose, 10 mM HEPES-KOH, 1 mM EGTA, pH 7.5), and subjected to homogenization with a Polytron homogenizer (Brinkmann Instruments Inc., Westbury, N.Y.) for 4 bursts of 10 seconds each at a setting of 6.5. All subsequent steps were conducted at 4° C. […]

[4] = system: caspases of KB apoptotic cell extract (24 kDa PARP cleavage product); experiment: Poly(ADP ribosyl) polymerase (PARP) cleavage by KB apoptotic cell extract; assay type: biochemical, human; parameters: ability of the extract to drive PARP cleavage: dose or concentration left out as unconfirmed
Protocol: In FIG. 3C, ^35S-labeled transcription-translation product of PARP cDNA in reticulocyte lysate (5% by volume) was incubated with (FIG. 3C, lanes 2 and 3) or without (FIG. 3C, lane 1) […] apoptotic cytosol protein in a total volume of […], in the presence (FIG. 3C, lane 3) or absence (FIG. 3C, lanes 1 and 2) of 1 mM dATP, and equivalent portions analyzed for the appearance of the 24 kDa cleavage product of poly(ADP ribosyl) polymerase (24 K PARP) by 12% SDS PAGE and fluorography.
Extract was prepared at 4° C. according to the procedure of Liu et al. (supra) with some minor modifications. Briefly, human KB epithelial cells were harvested in PBS containing 1.3 mM Na citrate and 0.6 mM EDTA. The cell pellet was washed in Buffer A/ext (50 mM PIPES, 50 mM KCl, 5 mM EGTA, 2 mM MgCl2, 1 mM dithiothreitol, 20 μM cytochalasin B, pH 7.4), then resuspended in an equal volume of Buffer A/ext. The cells were disrupted by 5 cycles of freeze-thaw interspersed by 5 strokes with a Wheaton glass homogenizer fitted with a B pestle, and centrifuged at […] for 1 hour in a Beckman Ti75 rotor. The resulting supernatant contained 10 mg protein / ml. […]

[5] = zVAD-fmk added before dATP and incubation at 37° C.
[6] = extract depleted of cytochrome c by immunoadsorption

In the case of “HA-BAX: hemagglutinin epitope tagged BAX expressed by transfection”, the “cells expressing the HA-tagged protein” value [1] is reported as 7.5%.

With “BAX: full length murine BAX proapoptotic protein, translated in rabbit reticulocyte lysate” the “mitochondrial targeting / membrane integration in vitro” value ([2]; absence of apoptotic cell extract, resistance to extraction at alkaline pH) was “failed to target mitochondria”.

In the case of `COC(=O)C[C@H](NC(=O)[C@H](C)NC(=O)[C@@H](NC(=O)OCc1ccccc1)C(C)C)C(=O)CF` [zVAD-fmk, reference compound] (Cbz-Val-Ala-Asp(OMe)-CH2F), the “BAX integration into mitochondrial membrane in response to IL-3 withdrawal” value ([3]; alkaline-resistant BAX) is reported as “partly blocked”, the “recovery of total BAX associated with mitochondria” value ([3]; no alkali extraction) is reported as “did not significantly influence” and the “ability of the extract to drive PARP cleavage” value [4, 5] is reported as “abolished”. For the same compound, the “BAX targeting supported by apoptotic high speed cytosol” value [2, 5] was “effectively inhibit”.

For “cytochrome c: cytochrome c protein added to apoptotic cell extract or reticulocyte lysate”, the “PARP cleavage after add-back to cytochrome c depleted extract” value [4, 6] was “re-instated”, the “mitochondrial membrane insertion of BAX with additional cytochrome c” value ([2]; cytochrome c added to apoptotic cytosol) was “No improvement” and the “BAX targeting after add-back to cytochrome c depleted extract” value [2, 6] was “re-instated”. For the same compound, the “BAX targeting with cytochrome c alone” value ([2]; reticulocyte lysate translation mixtures, no extract) was “failed to stimulate”.

— patent US20020052316A1, “Bax-mediated apoptosis modulating reagents and methods” (priority 1998, published 2002)
